The record followed here is patent publication US20250340551A1, “SMALL MOLECULE MODULATORS OF STAT6” (Gilead Sciences, Inc., priority 2024, published 2025).

Molecules are shown by their SMILES.

Sequence of human STAT6 (P42226 122-658): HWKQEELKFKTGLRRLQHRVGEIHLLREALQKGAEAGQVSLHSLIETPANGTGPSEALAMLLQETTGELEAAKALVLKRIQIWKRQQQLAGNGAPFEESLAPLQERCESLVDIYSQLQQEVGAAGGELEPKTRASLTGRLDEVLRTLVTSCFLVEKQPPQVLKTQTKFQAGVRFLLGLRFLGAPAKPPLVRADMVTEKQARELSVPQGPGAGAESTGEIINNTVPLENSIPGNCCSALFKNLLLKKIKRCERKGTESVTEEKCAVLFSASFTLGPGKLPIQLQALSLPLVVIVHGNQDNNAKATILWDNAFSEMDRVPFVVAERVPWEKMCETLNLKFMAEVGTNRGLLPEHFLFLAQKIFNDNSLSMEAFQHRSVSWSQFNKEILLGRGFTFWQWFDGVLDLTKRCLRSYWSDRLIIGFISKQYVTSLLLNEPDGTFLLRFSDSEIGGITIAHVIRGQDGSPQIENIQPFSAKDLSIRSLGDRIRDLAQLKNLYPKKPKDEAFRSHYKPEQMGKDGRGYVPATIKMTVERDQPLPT

This assay addresses human STAT6 (Homo sapiens (Human), UniProt P42226). In words: Surface plasmon resonance assay (Biacore 8K, binding to immobilized STAT6). To be noted: human STAT6 aa122-658, N-terminal His-tag, CM5 chip, 25° C.; geometric mean; read-out: STAT6 SPR Kd. A digest of the protocol:
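Run at 25° C with His-tagged STAT6 aa122-658 (insect-cell expressed) amine-coupled to a CM5 chip, reference-subtracted, in PBS-P+ with 2% DMSO. Multi-cycle kinetics: 60 sec. contact, up to 300 sec. dissociation. Affinity fitted from late report-point binding isotherms, with Rmax both free and fixed to theoretical 1:1.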
(In SPR one partner is held on a chip, and binding of the other changes the refractive index at the surface.)
Broadly, the Kd is the equilibrium constant for the complex coming apart. In the case of `CN(C)C(=O)c1ccc(C2CCN(Cc3cc4c(-c5cnc(N)c(N(C)C)c5)ccnc4n3C)CC2)cc1` [Example 1k47, 4-[1-[[4-[6-Amino-5-(dimethylamino)-3-pyridyl]-1-methyl-pyrrolo[2,3-b]pyridin-2-yl]methyl]-4-piperidyl]-N,N-dimethyl-benzamide], the Kd came to 1210 nM. Regarding `CN(C)C(=O)c1ccc(C2CCN(Cc3cc4c(-c5cnc(N)c(OC(F)(F)F)c5)ccnc4n3C)CC2)cc1` [Example 1k48, 4-[1-[[4-[6-Amino-5-(trifluoromethoxy)-3-pyridyl]-1-methyl-pyrrolo[2,3-b]pyridin-2-yl]methyl]-4-piperidyl]-N,N-dimethyl-benzamide], the Kd stood at 8230 nM. Turning to `CN(C)C(=O)c1ccc(C2CCN(Cc3cc4c(-c5cnc(N)cc5CO)ccnc4n3C)CC2)cc1` [Example 1k49, 4-[1-[[4-[6-Amino-4-(hydroxymethyl)-3-pyridyl]-1-methyl-pyrrolo[2,3-b]pyridin-2-yl]methyl]-4-piperidyl]-N,N-dimethyl-benzamide], the Kd is 148 nM. On to `CN(C)C(=O)c1ccc(C2CCN(Cc3cc4c(-c5cnc(N)c(O)c5)ccnc4n3C)CC2)cc1` [Example 1k50, 4-[1-[[4-(6-Amino-5-hydroxy-3-pyridyl)-1-methyl-pyrrolo[2,3-b]pyridin-2-yl]methyl]-4-piperidyl]-N,N-dimethyl-benzamide], for which the Kd stood at 557 nM. As for `CN(C)C(=O)c1ccc(C2CCN(Cc3cc4c(-c5cnc(N)cc5C(F)F)ccnc4n3C)CC2)cc1` [Example 1k52, 4-[1-[[4-[6-Amino-4-(difluoromethyl)-3-pyridyl]-1-methyl-pyrrolo[2,3-b]pyridin-2-yl]methyl]-4-piperidyl]-N,N-dimethyl-benzamide], the Kd was determined as 53.5 nM. The result for `CN(C)C(=O)c1ccc(C2CCN(Cc3cc4c(-c5cnc(N)cc5C#N)ccnc4n3C)CC2)cc1` [Example 1k53, 4-[1-[[4-(6-Amino-4-cyano-3-pyridyl)-1-methyl-pyrrolo[2,3-b]pyridin-2-yl]methyl]-4-piperidyl]-N,N-dimethyl-benzamide] reads 962 nM; that for `CN(C)C(=O)c1ccc(C2CCN(Cc3cc4c(-c5cnc(N)nn5)ccnc4n3C)CC2)cc1` [Example 1k54, 4-[1-[[4-(3-Amino-1,2,4-triazin-6-yl)-1-methyl-pyrrolo[2,3-b]pyridin-2-yl]methyl]-4-piperidyl]-N,N-dimethyl-benzamide], 104 nM; that for `CN(C)C(=O)c1ccc(C2CCN(Cc3cc4c(-c5c(C(F)F)cc(N)cc5C(F)F)ccnc4n3C)CC2)cc1` [Example 1k55, 4-[1-[[4-[4-Amino-2,6-bis(difluoromethyl)phenyl]-1-methyl-pyrrolo[2,3-b]pyridin-2-yl]methyl]-4-piperidyl]-N,N-dimethyl-benzamide], 1010 nM. On to `COC(=O)c1cc(N)ncc1-c1ccnc2c1cc(CN1CCC(c3ccc(C(=O)N(C)C)cc3)CC1)n2C` [Example 1k56, Methyl 2-amino-5-[2-[[4-[4-(dimethylcarbamoyl)phenyl]-1-piperidyl]methyl]-1-methyl-pyrrolo[2,3-b]pyridin-4-yl]pyridine-4-carboxylate], for which the Kd is 1400 nM.

Consider `CN(C)C(=O)c1ccc(C2CCN(Cc3cc4c(-c5cnc(N)c(C#N)n5)ccnc4n3C)CC2)cc1` [Example 1k57, 4-[1-[[4-(5-Amino-6-cyano-pyrazin-2-yl)-1-methyl-pyrrolo[2,3-b]pyridin-2-yl]methyl]-4-piperidyl]-N,N-dimethyl-benzamide], for which the Kd was found to be 766 nM. Regarding `CN(C)C(=O)c1ccc(C2CCN(Cc3cc4c(-c5ccc(N)nc5CO)ccnc4n3C)CC2)cc1` [Example 1k58, 4-[1-[[4-[6-Amino-2-(hydroxymethyl)-3-pyridyl]-1-methyl-pyrrolo[2,3-b]pyridin-2-yl]methyl]-4-piperidyl]-N,N-dimethyl-benzamide], the Kd stood at 60.8 nM. The result for `COCCNc1ccc(-c2ccnc3c2cc(CN2CCC(c4ccc(C(=O)N(C)C)cc4)CC2)n3C)cn1` [Example 1k59, 4-[1-[[4-[6-(2-Methoxyethylamino)-3-pyridyl]-1-methyl-pyrrolo[2,3-b]pyridin-2-yl]methyl]-4-piperidyl]-N,N-dimethyl-benzamide] reads 57.3 nM; that for `CN(C)C(=O)c1ccc(C2CCN(Cc3cc4c(-c5ccc(N)c(-c6nnn[nH]6)c5)ccnc4n3C)CC2)cc1` [Example 1k60, 4-[1-[[4-[4-Amino-3-(2H-tetrazol-5-yl)phenyl]-1-methyl-pyrrolo[2,3-b]pyridin-2-yl]methyl]-4-piperidyl]-N,N-dimethyl-benzamide], 35.9 nM; that for `CN(C)C(=O)c1ccc(C2CCN(Cc3cc4c(-c5ccc(NCCO)nc5)ccnc4n3C)CC2)cc1` [Example 1k61, 4-[1-[[4-[6-(2-Hydroxyethylamino)-3-pyridyl]-1-methyl-pyrrolo[2,3-b]pyridin-2-yl]methyl]-4-piperidyl]-N,N-dimethyl-benzamide], 16.5 nM. The result for `CN(C)C(=O)c1ccc(C2CCN(Cc3cc4c(-c5ccc(NCC(=O)O)nc5)ccnc4n3C)CC2)cc1` [Example 1k63, 2-[[5-[2-[[4-[4-(Dimethylcarbamoyl)phenyl]-1-piperidyl]methyl]-1-methyl-pyrrolo[2,3-b]pyridin-4-yl]-2-pyridyl]amino]acetic acid] reads 16.3 nM. As for `CN(C)C(=O)c1ccc(C2CCN(Cc3cc4c(-c5cnc(N)c(-c6nnn[nH]6)c5)ccnc4n3C)CC2)cc1` [Example 1k64, 4-[1-[[4-[6-Amino-5-(2H-tetrazol-5-yl)-3-pyridyl]-1-methyl-pyrrolo[2,3-b]pyridin-2-yl]methyl]-4-piperidyl]-N,N-dimethyl-benzamide], the Kd stood at 1700 nM. As to `Cc1cc(N)nc(C)c1-c1ccnc2c1cc(CN1CCC(c3ccc(C(=O)N(C)C)cc3)CC1)n2C` [Example 1k65, 4-[1-[[4-(6-Amino-2,4-dimethyl-3-pyridyl)-1-methyl-pyrrolo[2,3-b]pyridin-2-yl]methyl]-4-piperidyl]-N,N-dimethyl-benzamide], the Kd is 254 nM. As to `CN(C)C(=O)c1ccc(C2CCN(Cc3cc4c(-c5ccc(N)nn5)ccnc4n3C)CC2)cc1` [Example 1k68, 4-[1-[[4-(6-Aminopyridazin-3-yl)-1-methyl-pyrrolo[2,3-b]pyridin-2-yl]methyl]-4-piperidyl]-N,N-dimethyl-benzamide], the Kd turned out to be 13.5 nM. In the case of `[2H]C([2H])([2H])N(C(=O)c1ccc(C2CCN(Cc3cc4c(-c5ccc(NC)cn5)ccnc4n3C)CC2)cc1)C([2H])([2H])[2H]` [Example 1k70, 4-[1-[[1-methyl-4-[5-(methylamino)-2-pyridyl]pyrrolo[2,3-b]pyridin-2-yl]methyl]-4-piperidyl]-N,N-bis(trideuteriomethyl)benzamide], the Kd stood at 51.9 nM.

For the compound `CN(C)C(=O)c1ccc(C2CCN(Cc3cc4c(-c5ncc(N)cc5F)ccnc4n3C)CC2)cc1` [Example 1k72, 4-[1-[[4-(5-Amino-3-fluoro-2-pyridyl)-1-methyl-pyrrolo[2,3-b]pyridin-2-yl]methyl]-4-piperidyl]-N,N-dimethyl-benzamide], the Kd came out at 75.1 nM. The result for `CN(C)C(=O)c1ccc(C2CCN(Cc3cc4c(-c5ncc(N)cc5C(F)(F)F)ccnc4n3C)CC2)cc1` [Example 1k74, 4-[1-[[4-[5-Amino-3-(trifluoromethyl)-2-pyridyl]-1-methyl-pyrrolo[2,3-b]pyridin-2-yl]methyl]-4-piperidyl]-N,N-dimethyl-benzamide] reads 7290 nM; that for `CN(C)C(=O)c1ccc(C2CCN(Cc3cc4c(-c5ccc(N)c(C#N)n5)ccnc4n3C)CC2)cc1` [Example 1k75, 4-(1-((4-(5-Amino-6-cyanopyridin-2-yl)-1-methyl-1H-pyrrolo[2,3-b]pyridin-2-yl)methyl)piperidin-4-yl)-N,N-dimethylbenzamide], 83.9 nM. Take `CN(C)C(=O)c1ccc(C2CCN(Cc3cc4c(-c5ccc(N)c(C(F)(F)F)n5)ccnc4n3C)CC2)cc1` [Example 1k76, 4-[1-[[4-[5-Amino-6-(trifluoromethyl)-2-pyridyl]-1-methyl-pyrrolo[2,3-b]pyridin-2-yl]methyl]-4-piperidyl]-N,N-dimethyl-benzamide]: the Kd is 999 nM. In the case of `CN(C)C(=O)c1ccc(C2CCN(Cc3cc4c(-c5ccc(N)c(Cl)n5)ccnc4n3C)CC2)cc1` [Example 1k77, 4-(1-((4-(5-Amino-6-chloropyridin-2-yl)-1-methyl-1H-pyrrolo[2,3-b]pyridin-2-yl)methyl)piperidin-4-yl)-N,N-dimethylbenzamide], the Kd is 52.3 nM. Consider `CCOC(=O)c1nc(-c2ccnc3c2cc(CN2CCC(c4ccc(C(=O)N(C)C)cc4)CC2)n3C)ccc1N` [Example 1k78, Ethyl 3-amino-6-(2-((4-(4-(dimethylcarbamoyl)phenyl)piperidin-1-yl)methyl)-1-methyl-1H-pyrrolo[2,3-b]pyridin-4-yl)picolinate], for which the Kd turned out to be 59.3 nM. Turning to `CN(C)C(=O)c1ccc(C2CCN(Cc3cc4c(-c5ccc(N)c(C#N)c5)ccnc4n3C)CC2)cc1` [Example 1k80, 4-(1-((4-(4-Amino-3-cyanophenyl)-1-methyl-1H-pyrrolo[2,3-b]pyridin-2-yl)methyl)piperidin-4-yl)-N,N-dimethylbenzamide], the Kd amounted to 52.1 nM. The result for `CN(C)C(=O)c1ccc(C2CCN(Cc3cc4c(-c5ccc6[nH]cc(C(=O)C(F)(F)F)c6c5)ccnc4n3C)CC2)cc1` [Example 1m145, N,N-dimethyl-4-(1-((1-methyl-4-(3-(2,2,2-trifluoroacetyl)-1H-indol-5-yl)-1H-pyrrolo[2,3-b]pyridin-2-yl)methyl)piperidin-4-yl)benzamide] reads 253 nM. On to `C[C@@H]1CN(c2ccc(C(=O)N(C)C)cc2)CCN1Cc1cc2c(-c3ccc(N)nc3)ccnc2n1C` [Example 1n4, 4-[(3R)-4-[[4-(6-amino-3-pyridyl)-1-methyl-pyrrolo[2,3-b]pyridin-2-yl]methyl]-3-methyl-piperazin-1-yl]-N,N-dimethyl-benzamide], for which the Kd came to 147 nM.
